# From publication PMC8091061, “Ceramide-1-phosphate transfer protein (CPTP) regulation by phosphoinositides” (The Journal of Biological Chemistry, 2021)
# Experiments:
# human CPTP (wtCPTP) = experiment: FRET from CPTP Trp/Tyr to dansyl-PE in POPC vesicles; format: binding; conditions: pH 6.6, 150 mM NaCl, EDTA, 25 °C
# From the text: FRET from CPTP Trp/Tyr to dansyl-PE in POPC vesicles on human CPTP (wtCPTP)
# human GLTP = target: T1, human GLTP (Homo sapiens, UniProt Q9NZD2); experiment: FRET intervesicular lipid transfer; format: biochemical; conditions: labelled compound; POPC donor to POPC acceptor vesicles, pH 6.6, 150 mM NaCl, EDTA, 25 °C; transfer cargo, not chemically converted
# T1 sequence (Q9NZD2 1-209): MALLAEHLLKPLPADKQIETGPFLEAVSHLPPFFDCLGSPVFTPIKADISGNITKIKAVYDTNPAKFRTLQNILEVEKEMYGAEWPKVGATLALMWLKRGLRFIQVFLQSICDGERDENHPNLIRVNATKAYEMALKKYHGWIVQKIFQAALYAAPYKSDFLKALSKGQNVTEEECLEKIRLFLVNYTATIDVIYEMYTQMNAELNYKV
# [1] = apparent Kd for POPC vesicles with 10 mol% lipid and 2 mol% dansyl-PE (vesicle PC concentration, not free lipid)
Compound,Kd (human CPTP (wtCPTP); [1]) [nM],further results
"CCCCCCCC/C=C\CCCCCCCC(=O)OC[C@H](COP(=O)(O)O[C@@H]1[C@H](O)[C@H](O)[C@@H](O)[C@H](O)[C@H]1O)OC(=O)CCCCCCC/C=C\CCCCCCCC [PI, 1,2-dioleoyl-sn-glycero-3-phospho-(1'-myo-inositol)]",750 ± 90,
"CCCCCCCC/C=C\CCCCCCCC(=O)O[C@H](COC(=O)CCCCCCCCCCCCCCC)COP(=O)([O-])OCC[N+](C)(C)C [POPC, 1-Palmitoyl-2-oleyl-sn-glycero-3-phosphocholine]",,"Kd (human CPTP (wtCPTP); pure POPC vesicles with 2 mol% dansyl-PE (apparent, vesicle PC concentration)): 1760 ± 200 nM"
"CCCCCCCC/C=C\CCCCCCCC(=O)OC[C@H](COP(=O)(O)O[C@H]1[C@H](O)[C@@H](O)[C@H](OP(=O)(O)O)[C@@H](O)[C@H]1O)OC(=O)CCCCCCC/C=C\CCCCCCCC [PI-4P, 1,2-dioleoyl-sn-glycero-3-phospho-(1'-myo-inositol-4'-phosphate)]",260 ± 30,
"CCCCCCCC/C=C\CCCCCCCC(=O)OC[C@H](COP(=O)(O)O[C@@H]1[C@H](O)[C@H](O)[C@@H](OP(=O)(O)O)[C@H](OP(=O)(O)O)[C@H]1O)OC(=O)CCCCCCC/C=C\CCCCCCCC [PI-(4,5)P2, 1,2-dioleoyl-sn-glycero-3-phospho-(1'-myo-inositol-4',5'-bisphosphate)]",260 ± 40,
PI-3P,290 ± 40,
CCCCCCCCCCCCC/C=C/[C@@H](O)[C@H](CO[C@@H]1O[C@H](CO)[C@H](O)[C@H](O)[C@H]1O)NC(=O)CCCCCCCCC/C=C/c1c2ccccc2cc2ccccc12 [AV-GalCer],,FRET intervesicular lipid transfer (human GLTP): GalCer transfer rates by GLTP were unaffected by PI and PI-3P
